From patent US20060205743A1, “Protein kinase inhibitors” (priority 2003, published 2006)

Target: MAPKAP-K2 (Homo sapiens, UniProt P49137)
Experiment: MAPKAP-Kinase 2 Assay (33P-ATP peptide phosphorylation, filter plate)
Format: biochemical
Set-up: key: +: active; ++: more active; +++: very active
Settings: assays conducted at typically 1-100 μM
Description: MAPKAP-Kinase 2 Assay [Compound Preparation]
Compounds are dissolved in DMSO at a concentration of 3 mM and stored in aliquots at −20° C. Compounds in DMSO from these stock aliquots are diluted in 30% DMSO to produce initial working stock solutions of 1 mM and 3 mM. Both of these stock solutions are then subjected to 1:10 serial dilutions in 30% DMSO in order to prepare 3000, 1000, 300, 100, 30, 10, 3, 1, 0.1, 0.01 μM stock solutions. 5 μl of each stock solution is used per 50 μl reaction to give final assay concentrations of 300, 100, 30, 10, 3, 1, 0.3, 0.1, 0.01, 0.001 μM.
The kinase reaction is conducted in a round-bottomed polypropylene 96-well plate. MAPKAP-K2 is diluted to 25 mU/μl in diluent buffer (50 mM Tris/HCl. pH7.5, 0.1 mM EGTA, 0.1% (v/v) β-mercaptoethanol, 1 mg/ml BSA). 5 μl compound or 30% DMSO is added to each well followed by 25 μl substrate cocktail (10 μM ATP, 30 μM peptide (KKLNRTLSVA), 0.5 μCi ^33P-γ-ATP in 50 mM Tris pH7.5, 0.1 mM EGTA, 10 mM Mg-acetate, 0.1% BME). The reaction is initiated with the addition of 20 μl enzyme solution per well or 20 μl diluent buffer without enzyme. The plate is shaken for 10 sec and then left at room temperature for 30 min. The reaction is terminated with 50 μl 150 mM phosphoric acid. 90 μl of the reaction mixture is then transferred into a 96-well P81 filter plate (Millipore) and incubated at room temperature for 5 min. The filter plate is then washed 4 times with 200 μl 75 mM phosphoric acid per well on a plate vacuum manifold (Millipore) and dried in an oven for 2-3 h. Packard MicroScint ‘0’ (30 μl) is then added to each well, the plate is mixed for 30 min and subjected to liquid scintillation counting on a Packard TopCount.
[Interpretation] %Control=(X−B)/(Tot−B)×100 %Inhibition=100−% Control X=cpm of the test compound wells B=cpm of wells without enzyme Tot=cpm of wells with DMSO vehicle only

MAPKAP-K2, sequence (P49137 whole entry): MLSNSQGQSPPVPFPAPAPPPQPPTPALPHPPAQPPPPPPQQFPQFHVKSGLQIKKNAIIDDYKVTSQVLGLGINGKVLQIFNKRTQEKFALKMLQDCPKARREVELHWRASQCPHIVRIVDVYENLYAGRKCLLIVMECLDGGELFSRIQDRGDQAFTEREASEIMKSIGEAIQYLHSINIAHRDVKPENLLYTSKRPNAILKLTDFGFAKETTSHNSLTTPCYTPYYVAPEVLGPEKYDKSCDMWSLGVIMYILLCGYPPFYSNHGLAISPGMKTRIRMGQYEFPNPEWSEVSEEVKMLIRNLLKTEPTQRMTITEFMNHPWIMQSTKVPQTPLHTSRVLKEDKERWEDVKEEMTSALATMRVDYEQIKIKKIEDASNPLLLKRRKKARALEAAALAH

SMILES	MAPKAP-K2 activity
Fc1ccc(Nc2cc(NC3CCNC3)nc3ccnn23)cc1Cl (centres unmarked) [Compound 73]	++
Fc1ccc(Nc2cc(NC3CCCNC3)nc3ccnn23)cc1Cl (centres unmarked) [Compound 74]	+++
Cc1ccc(C)c(Nc2cc(N[C@H]3CC[C@H](N)CC3)nc3ccnn23)c1 [Compound 75]	+++
Cc1cccc(Nc2cc(N[C@H]3CC[C@H](N)CC3)nc3ccnn23)c1C [Compound 76]	+++
Cc1ccc(Nc2cc(N[C@H]3CC[C@H](N)CC3)nc3ccnn23)cc1C [Compound 77]	+++
NCCCCNc1cc(Nc2ccc(F)c(Cl)c2)n2nccc2n1 [Compound 78]	+
N#C/N=C(\N)NC1CCC(Nc2cc(Nc3ccc(F)c(Cl)c3)n3nccc3n2)CC1 (centres unmarked) [Compound 79]	++
CN(CCN)c1cc(Nc2ccc(F)c(Cl)c2)n2nccc2n1 [Compound 80]	+
Fc1ccc(Nc2cc(N3CCNCC3)nc3ccnn23)cc1Cl [Compound 81]	+
NC1CCN(c2cc(Nc3ccc(F)c(Cl)c3)n3nccc3n2)C1 (centres unmarked) [Compound 82]	+
N[C@H]1CC[C@H](Nc2cc(Nc3cccc(Br)c3)n3nccc3n2)CC1 [Compound 83]	+++
NC1CCC(Nc2cc(Nc3ccc(Br)cc3)n3nccc3n2)CC1 (centres unmarked) [Compound 84]	+++
NC1CCC(Nc2cc(Nc3ccc(I)cc3)n3nccc3n2)CC1 (centres unmarked) [Compound 85]	+++
CNCCNc1cc(Nc2ccc(F)c(Cl)c2)n2nccc2n1 [Compound 86]	++
CN[C@H]1CC[C@H](Nc2cc(Nc3ccc(F)c(Cl)c3)n3nccc3n2)CC1 [Compound 87]	+++
Fc1ccc(Nc2cc(NC3CCNCC3)nc3ccnn23)cc1Cl [Compound 88]	++
CCN[C@H]1CC[C@H](Nc2cc(Nc3ccc(F)c(Cl)c3)n3nccc3n2)CC1 [Compound 89]	+++
N[C@H]1CC[C@H](Nc2cc(NCc3ccccn3)n3nccc3n2)CC1 [Compound 90]	++

SMILES	MAPKAP-K2 activity
NC1CCC(Nc2cc(Nc3ccc(C(F)(F)F)cc3Cl)n3nccc3n2)CC1 (centres unmarked) [Compound 91]	+++
NC1CCC(Nc2cc(Nc3ccccc3C(F)(F)F)n3nccc3n2)CC1 (centres unmarked) [Compound 93]	++
NCCCNc1cc(Nc2ccc(F)c(Cl)c2)n2nccc2n1 [Compound 94]	+
NC1CCN(c2cc(Nc3ccc(F)c(Cl)c3)n3nccc3n2)CC1 [Compound 95]	+
COc1ccccc1Nc1cc(NC2CCCNC2)nc2ccnn12 (centres unmarked) [Compound 96]	++
COc1cccc(Nc2cc(NC3CCCNC3)nc3ccnn23)c1 (centres unmarked) [Compound 97]	+++
c1ccc(COc2cccc(Nc3cc(NC4CCCNC4)nc4ccnn34)c2)cc1 (centres unmarked) [Compound 98]	+++
COc1ccc(Cl)c(Nc2cc(NC3CCC(N)CC3)nc3ccnn23)c1 (centres unmarked) [Compound 99]	+++
NC1CCC(Nc2cc(Nc3ccccc3I)n3nccc3n2)CC1 (centres unmarked) [Compound 101]	+++
NC1CCC(Nc2cc(Nc3ccccc3Br)n3nccc3n2)CC1 (centres unmarked) [Compound 102]	+++
COc1ccc(Nc2cc(NC3CCC(N)CC3)nc3ccnn23)c(OC)c1OC (centres unmarked) [Compound 103]	++
CCCCOc1ccc(Nc2cc(NC3CCC(N)CC3)nc3ccnn23)cc1 (centres unmarked) [Compound 104]	+++
CCOc1cccc(Nc2cc(NC3CCCNC3)nc3ccnn23)c1 (centres unmarked) [Compound 105]	+++
Ic1ccc(Nc2cc(NC3CCCNC3)nc3ccnn23)cc1 (centres unmarked) [Compound 106]	+++
NC1CCC(Nc2cc(Nc3ccc(OC(F)(F)F)cc3Cl)n3nccc3n2)CC1 (centres unmarked) [Compound 107]	+++
NC1CCC(Nc2cc(Nc3ccc(F)cc3Cl)n3nccc3n2)CC1 (centres unmarked) [Compound 108]	+++
NC1CCC(Nc2cc(Nc3c(F)cccc3F)n3nccc3n2)CC1 (centres unmarked) [Compound 109]	+++
